Converted amounts (≈) assume the structure as drawn. The source made the active and inactive calls.

The record followed here is ChEMBL document CHEMBL6114946, “Development and characterization of pyridyl carboxamides as potent and highly selective Nav1.8 inhibitors” (Bioorg Med Chem Lett, 2025).

The target of series [1] is T1, Sodium channel protein type 10 subunit alpha (Homo sapiens, UniProt Q9Y5Y9). The experiment in a line: Inhibition of Nav1.8 (unknown origin) at 10 uM by Ionflux high-throughput automated patch method.
Target sequence in this assay (Q9Y5Y9 whole entry, looked up): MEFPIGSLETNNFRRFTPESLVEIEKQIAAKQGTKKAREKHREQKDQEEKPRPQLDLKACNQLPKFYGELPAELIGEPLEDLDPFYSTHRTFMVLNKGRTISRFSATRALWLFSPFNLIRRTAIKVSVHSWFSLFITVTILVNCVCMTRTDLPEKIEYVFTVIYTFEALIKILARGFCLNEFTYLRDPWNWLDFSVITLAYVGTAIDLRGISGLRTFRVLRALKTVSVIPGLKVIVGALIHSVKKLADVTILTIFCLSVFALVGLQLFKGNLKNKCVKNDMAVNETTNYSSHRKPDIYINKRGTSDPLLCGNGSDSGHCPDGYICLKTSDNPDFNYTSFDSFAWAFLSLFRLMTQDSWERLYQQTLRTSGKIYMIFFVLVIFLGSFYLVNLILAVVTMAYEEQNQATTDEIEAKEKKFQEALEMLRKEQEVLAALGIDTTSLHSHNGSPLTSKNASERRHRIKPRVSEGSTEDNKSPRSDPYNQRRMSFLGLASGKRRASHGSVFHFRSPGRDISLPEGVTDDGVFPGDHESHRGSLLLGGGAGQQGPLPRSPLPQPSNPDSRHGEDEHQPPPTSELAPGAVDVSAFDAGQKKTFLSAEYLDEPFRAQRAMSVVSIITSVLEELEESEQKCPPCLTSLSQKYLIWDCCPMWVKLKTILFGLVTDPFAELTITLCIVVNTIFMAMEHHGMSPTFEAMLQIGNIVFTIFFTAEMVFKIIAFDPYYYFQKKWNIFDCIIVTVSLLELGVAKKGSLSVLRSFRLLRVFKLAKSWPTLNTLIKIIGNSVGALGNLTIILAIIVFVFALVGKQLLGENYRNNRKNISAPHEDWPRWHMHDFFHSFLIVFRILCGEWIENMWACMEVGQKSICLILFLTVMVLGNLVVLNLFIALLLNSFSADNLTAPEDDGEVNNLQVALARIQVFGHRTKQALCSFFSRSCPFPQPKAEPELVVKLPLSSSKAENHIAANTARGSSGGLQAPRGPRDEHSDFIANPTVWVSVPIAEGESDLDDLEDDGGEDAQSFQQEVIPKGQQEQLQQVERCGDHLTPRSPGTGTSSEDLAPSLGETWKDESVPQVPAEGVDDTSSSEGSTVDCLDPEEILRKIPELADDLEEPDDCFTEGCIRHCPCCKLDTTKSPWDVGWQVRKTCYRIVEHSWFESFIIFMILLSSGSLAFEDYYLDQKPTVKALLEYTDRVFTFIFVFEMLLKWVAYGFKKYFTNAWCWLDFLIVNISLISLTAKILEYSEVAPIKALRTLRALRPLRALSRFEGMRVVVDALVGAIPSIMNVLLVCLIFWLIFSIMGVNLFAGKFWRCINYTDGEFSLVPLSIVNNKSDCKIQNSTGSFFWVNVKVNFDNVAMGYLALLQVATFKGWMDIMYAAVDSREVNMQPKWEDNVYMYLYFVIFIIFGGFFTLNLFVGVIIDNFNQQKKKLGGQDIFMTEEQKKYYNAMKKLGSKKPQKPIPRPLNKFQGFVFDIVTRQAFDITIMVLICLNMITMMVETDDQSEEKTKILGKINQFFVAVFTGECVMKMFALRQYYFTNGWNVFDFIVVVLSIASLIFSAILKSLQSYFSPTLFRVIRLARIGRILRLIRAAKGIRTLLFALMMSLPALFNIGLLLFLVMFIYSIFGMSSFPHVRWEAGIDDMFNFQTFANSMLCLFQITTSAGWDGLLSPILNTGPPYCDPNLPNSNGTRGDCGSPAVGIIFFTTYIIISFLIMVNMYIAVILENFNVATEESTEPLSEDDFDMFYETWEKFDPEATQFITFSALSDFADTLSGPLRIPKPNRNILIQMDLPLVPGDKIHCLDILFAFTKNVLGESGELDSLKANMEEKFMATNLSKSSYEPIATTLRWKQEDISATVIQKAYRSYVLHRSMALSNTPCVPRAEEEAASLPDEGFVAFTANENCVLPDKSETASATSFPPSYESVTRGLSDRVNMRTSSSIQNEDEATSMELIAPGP
Series [2] can be described thus: Oral bioavailability in dog at 10 mg/kg. The class given is ADME, organism-based, Canis lupus familiaris. To be noted: in vivo.
Series [3] deals with T1, Sodium channel protein type 10 subunit alpha. The experiment in a line: Inhibition of human Nav1.8 with resting membrane potential at half inactivated state by PatchXpress high-throughput electrophysiology method.
Target sequence in this assay (Q9Y5Y9 whole entry): as the sequence (Q9Y5Y9 whole entry, looked up) above
The nature of series [4]: Stability in human liver microsomes assessed as parent compound remaining measured after 60 mins. The class given is ADME, Microsome. The following applies: read-out: Stability. (Liver microsomes are a subcellular fraction often used to study metabolism.)
Series [5] in a line: Oral bioavailability in rat at 10 mg/kg. The class given is ADME, organism-based. The following applies: in vivo.
Series [6] addresses Nav1.7 (sodium channel protein type 9 subunit alpha) (Homo sapiens, UniProt Q15858). The experiment in a line: Inhibition of Nav1.7 (unknown origin) at 30 uM relative to control. The series is classed as toxicity.
In series [7] the target is Nav1.5 (sodium channel protein type 5 subunit alpha) (Homo sapiens, UniProt Q14524). As to the kind of experiment: Inhibition of Nav1.5 (unknown origin) at 30 uM relative to control. The series is classed as toxicity.
Series [8] in a line: Oral bioavailability in cynomolgus monkey at 10 mg/kg. The class given is ADME, organism-based, Macaca fascicularis. To be noted: in vivo.
In series [9] the target is Voltage-gated inwardly rectifying potassium channel KCNH2 (Homo sapiens, UniProt Q12809). As to the kind of experiment: Inhibition of human ERG. The series is classed as toxicity.
Voltage-gated inwardly rectifying potassium channel KCNH2, sequence (Q12809 whole entry): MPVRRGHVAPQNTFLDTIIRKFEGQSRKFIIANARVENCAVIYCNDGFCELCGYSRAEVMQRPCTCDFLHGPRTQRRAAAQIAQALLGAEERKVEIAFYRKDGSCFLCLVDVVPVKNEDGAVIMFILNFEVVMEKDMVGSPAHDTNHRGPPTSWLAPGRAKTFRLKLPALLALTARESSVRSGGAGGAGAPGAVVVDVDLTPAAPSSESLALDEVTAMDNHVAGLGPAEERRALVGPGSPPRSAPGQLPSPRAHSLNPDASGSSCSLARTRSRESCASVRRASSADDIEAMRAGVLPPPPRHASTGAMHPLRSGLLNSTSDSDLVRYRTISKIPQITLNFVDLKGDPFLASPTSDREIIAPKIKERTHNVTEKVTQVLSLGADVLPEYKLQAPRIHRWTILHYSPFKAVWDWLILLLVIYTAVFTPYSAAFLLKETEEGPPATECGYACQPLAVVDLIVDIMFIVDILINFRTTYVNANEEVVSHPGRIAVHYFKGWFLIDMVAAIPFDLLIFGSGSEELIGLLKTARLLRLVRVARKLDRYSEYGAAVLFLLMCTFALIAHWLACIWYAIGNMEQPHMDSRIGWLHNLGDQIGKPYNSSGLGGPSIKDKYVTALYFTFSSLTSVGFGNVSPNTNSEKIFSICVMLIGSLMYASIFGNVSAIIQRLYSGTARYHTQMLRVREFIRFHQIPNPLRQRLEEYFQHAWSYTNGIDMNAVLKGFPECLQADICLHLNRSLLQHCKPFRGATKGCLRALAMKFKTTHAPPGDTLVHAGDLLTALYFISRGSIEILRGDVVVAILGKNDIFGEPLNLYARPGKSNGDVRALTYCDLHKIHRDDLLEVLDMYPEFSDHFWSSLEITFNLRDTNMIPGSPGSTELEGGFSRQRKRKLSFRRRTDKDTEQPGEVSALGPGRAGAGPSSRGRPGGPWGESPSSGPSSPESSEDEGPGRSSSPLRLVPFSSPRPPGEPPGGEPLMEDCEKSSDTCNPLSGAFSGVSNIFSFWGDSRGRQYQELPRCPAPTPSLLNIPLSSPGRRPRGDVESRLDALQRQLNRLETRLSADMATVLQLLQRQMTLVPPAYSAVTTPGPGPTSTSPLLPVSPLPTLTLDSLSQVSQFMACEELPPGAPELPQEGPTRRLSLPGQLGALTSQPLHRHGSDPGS
Series [10] deals with T1, Sodium channel protein type 10 subunit alpha. As to the kind of experiment: Inhibition of human Nav1.8 with resting membrane potential by PatchXpress high-throughput electrophysiology method.
Target sequence in this assay (Q9Y5Y9 whole entry): as the sequence (Q9Y5Y9 whole entry, looked up) above
Series [11] can be described thus: Kinetic solubility of the compound in pH 7.4 phosphate buffered saline measured after 2 hrs by LC/MS analysis. To be noted: read-out: Kinetic_solubility. The class given is physicochemical.
The target of series [12] is Nav1.2 (sodium channel protein type 2 subunit alpha) (Homo sapiens, UniProt Q99250). The experiment in a line: Inhibition of Nav1.2 (unknown origin) at 30 uM relative to control. The series is classed as toxicity.
The target of the next series is Cytochrome P450 3A4 (Homo sapiens, UniProt P08684). The experiment in a line: Inhibition of CYP3A4 (unknown origin). The series is classed as ADME.
Cytochrome P450 3A4, sequence (P08684 whole entry): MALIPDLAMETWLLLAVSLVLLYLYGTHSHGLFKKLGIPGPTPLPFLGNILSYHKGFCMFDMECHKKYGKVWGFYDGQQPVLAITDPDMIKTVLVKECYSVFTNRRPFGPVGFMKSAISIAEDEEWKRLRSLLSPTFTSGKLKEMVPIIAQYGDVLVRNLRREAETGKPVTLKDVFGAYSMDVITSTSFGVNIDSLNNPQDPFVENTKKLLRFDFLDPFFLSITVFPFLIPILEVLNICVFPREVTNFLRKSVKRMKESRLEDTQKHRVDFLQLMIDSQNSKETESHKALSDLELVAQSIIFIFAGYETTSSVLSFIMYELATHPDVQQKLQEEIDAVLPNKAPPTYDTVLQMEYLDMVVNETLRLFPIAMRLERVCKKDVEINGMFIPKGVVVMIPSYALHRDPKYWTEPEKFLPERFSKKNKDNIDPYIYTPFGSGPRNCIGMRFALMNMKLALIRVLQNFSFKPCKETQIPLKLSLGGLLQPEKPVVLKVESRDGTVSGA
In a further series the target is T2, Cytochrome P450 1A2 (Homo sapiens, UniProt P05177).
T2 sequence (P05177 whole entry): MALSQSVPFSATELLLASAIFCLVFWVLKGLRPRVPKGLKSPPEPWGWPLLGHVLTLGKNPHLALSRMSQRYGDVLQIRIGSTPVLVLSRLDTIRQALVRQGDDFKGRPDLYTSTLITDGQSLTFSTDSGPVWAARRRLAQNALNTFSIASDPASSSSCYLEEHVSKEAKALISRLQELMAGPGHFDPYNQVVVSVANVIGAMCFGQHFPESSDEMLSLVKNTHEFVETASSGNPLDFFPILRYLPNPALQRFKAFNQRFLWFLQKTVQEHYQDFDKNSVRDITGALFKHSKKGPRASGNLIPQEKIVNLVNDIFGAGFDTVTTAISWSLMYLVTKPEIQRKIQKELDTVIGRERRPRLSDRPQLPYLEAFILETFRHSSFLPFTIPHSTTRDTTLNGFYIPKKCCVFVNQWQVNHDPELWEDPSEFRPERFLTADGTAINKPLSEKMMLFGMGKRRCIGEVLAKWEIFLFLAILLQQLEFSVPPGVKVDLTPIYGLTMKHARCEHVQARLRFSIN
As to the kind of experiment: Inhibition of CYP1A2 (unknown origin). The series is classed as ADME.

Series [13] in a line: Inhibition of Nav1.5 (domain 1 and 2)-Nav 1.8 (domain 3 and 4) chimera (unknown origin) with resting membrane potential at half inactivated state by PatchXpress high-throughput electrophysiology method. The arrangement: species or system Homo sapiens.
The nature of series [14]: Volume of distribution at steady state in rat at 1 mg/kg, iv. The series is classed as ADME, organism-based. To be noted: in vivo, read-out: Vdss.
The nature of series [15]: Ratio of drug level in rat brain to plasma at 1 mg/kg, iv measured after 60 mins. The class given is ADME, organism-based. To be noted: read-out: BPR.
The nature of series [16]: Volume of distribution at steady state in cynomolgus monkey at 1 mg/kg, iv. The class given is ADME, organism-based, Macaca fascicularis. The following applies: in vivo, read-out: Vdss.
For series [17], the target named is Nav1.1 (sodium channel protein type 1 subunit alpha) (Homo sapiens, UniProt P35498). The experiment in a line: Inhibition of Nav1.1 (unknown origin) at 30 uM relative to control. The class given is toxicity.
The nature of series [18]: Protein binding in human plasma assessed as unbound fraction. The class given is ADME, cell-free.
The nature of series [19]: Clearance in cynomolgus monkey at 1 mg/kg. The series is classed as ADME, organism-based, Macaca fascicularis. To be noted: in vivo.
In series [20] the target is Nav1.6 (sodium channel protein type 8 subunit alpha) (Homo sapiens, UniProt Q9UQD0). The experiment in a line: Inhibition of Nav1.6 (unknown origin) at 30 uM relative to control. The class given is toxicity.
For series [21], the target named is Sodium channel protein type 10 subunit alpha (Mus musculus, UniProt Q6QIY3). As to the kind of experiment: Inhibition of mouse Nav1.8 with resting membrane potential at half inactivated state by PatchXpress high-throughput electrophysiology method.
Series [22] in a line: Apparent permeability in MDCK-MDR1 cells. The class given is ADME, cell-based, Canis lupus familiaris. To be noted: dog.
Series [23] is described as follows: Clearance in dog at 1 mg/kg. To be noted: in vivo. The series is classed as ADME, organism-based, Canis lupus familiaris.
A short description of series [24]: Volume of distribution at steady state in dog at 1 mg/kg, iv. The class given is ADME, organism-based, Canis lupus familiaris. The following applies: in vivo, read-out: Vdss.
For series [25], the target named is T1, Sodium channel protein type 10 subunit alpha. As to the kind of experiment: Inhibition of Nav1.8 (unknown origin) over expressed in HEK cells exposed to 120th depolarizing pulse at 10 Hz train of action potential at 12 nM. The series is classed as cell-based.
Target sequence in this assay (Q9Y5Y9 whole entry, looked up): as the sequence (Q9Y5Y9 whole entry, looked up) above
The target in series [26] is Nav1.3 (sodium channel protein type 3 subunit alpha) (Homo sapiens, UniProt Q9NY46). As to the kind of experiment: Inhibition of Nav1.3 (unknown origin) at 30 uM relative to control. The class given is toxicity.
Series [27] addresses T1, Sodium channel protein type 10 subunit alpha. The experiment in a line: Inhibition of Nav1.8 (unknown origin) over expressed in HEK cells exposed to 1st depolarizing pulse at 10 Hz train of action potential at 12 nM. The class given is cell-based.
Target sequence in this assay (Q9Y5Y9 whole entry, looked up): as above
Series [28] concerns the target Nav1.4 (sodium channel protein type 4 subunit alpha) (Homo sapiens, UniProt P35499). As to the kind of experiment: Inhibition of Nav1.4 (unknown origin) at 30 uM relative to control. The series is classed as toxicity.
Series [29] in a line: Efflux ratio of apparent permeability in MDCK-MDR1 cells. The series is classed as ADME, cell-based, Canis lupus familiaris. To be noted: dog.
Series [30] in a line: Clearance in rat at 1 mg/kg. The series is classed as ADME, organism-based. The following applies: in vivo.
In series [31] the target is T1, Sodium channel protein type 10 subunit alpha. The experiment in a line: Inhibition of Nav1.8 (unknown origin) over expressed in HEK cells assessed as reduction in deltamethrin-stimulated channel activation by FLIPR assay. The series is classed as cell-based.
Target sequence in this assay (Q9Y5Y9 whole entry): as the sequence (Q9Y5Y9 whole entry, looked up) above
Series [32] is described as follows: Half life in rat. The class given is ADME. The following applies: in vivo.
The target of a further series is Cytochrome P450 2C9 (Homo sapiens, UniProt P11712). The experiment in a line: Inhibition of CYP2C9 (unknown origin) at 2 to 8 uM. The class given is ADME. The following applies: dose 2-8 µM.
Cytochrome P450 2C9, sequence (P11712 whole entry): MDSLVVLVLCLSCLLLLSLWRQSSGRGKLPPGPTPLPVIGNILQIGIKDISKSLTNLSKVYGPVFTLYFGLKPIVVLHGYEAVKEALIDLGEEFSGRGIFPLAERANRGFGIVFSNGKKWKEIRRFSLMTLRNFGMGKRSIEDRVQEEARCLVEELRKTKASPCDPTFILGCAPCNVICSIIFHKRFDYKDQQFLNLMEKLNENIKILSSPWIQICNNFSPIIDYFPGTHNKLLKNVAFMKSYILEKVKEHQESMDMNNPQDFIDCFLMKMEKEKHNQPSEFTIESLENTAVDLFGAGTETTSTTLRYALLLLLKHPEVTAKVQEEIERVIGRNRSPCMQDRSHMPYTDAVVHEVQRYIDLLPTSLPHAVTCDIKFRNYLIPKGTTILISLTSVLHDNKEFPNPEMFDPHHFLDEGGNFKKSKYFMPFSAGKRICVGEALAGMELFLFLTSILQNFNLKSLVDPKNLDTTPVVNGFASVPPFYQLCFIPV

Take `CS(=N)(=O)c1cccc(NC(=O)c2cc(C(F)(F)F)cnc2Oc2ccc(F)cc2Cl)c1` (stereo unspecified): the inhibition (commonly the percentage by which the read-out fell short of the control) in series [1] was “Active”. Also, the bioavailability – broadly, dose-corrected exposure relative to a reference, in per cent – in [2] turned out to be 61%; in series [5], 86%; in [8], 98%. Besides, the IC50 (usually the concentration at which inhibition is half-maximal) in series [3] is 12 nM; in series [9] it was over 30000 nM; in [10], 43 nM; in [13], 9310 nM; in series [21] it was 660 nM. For the same molecule, the remaining at 1 h in [4] is over 95%. In addition, the inhibition at 30 µM in series [6], in series [7], in series [12], in series [17], in series [20] and in series [26] was under 25% in each case. Moreover, in series [28], the inhibition at 30 µM is under 25%. Also, the solubility kinetic at 2 h in [11] is 26 µg/mL (≈ 53.3 µM). Moreover, the INH at Cytochrome P450 3A4 and on Cytochrome P450 1A2 was over 30 µM each time. In addition, the Vd in series [14] was 1.9 L/kg; in series [16], 2.9 L/kg; in series [24] it was 2 L/kg. In addition, the Kp at 1 h in [15] amounted to 0.89. Besides, in series [18], the fraction unbound (as a rule, the share of the substance not bound to proteins or other matrix) amounted to 0.073. For the same molecule, the clearance – broadly, a measure of how efficiently the substance is removed, as volume per time – in series [19] turned out to be 2.5 mL/min/kg; in [23], 3.6 mL/min/kg; in series [30], 5.9 mL/min/kg. In addition, in series [22], the Papp (as a rule, a coefficient for how fast a substance crosses the barrier) was 15.5 ×10⁻⁶ cm/s. For the same molecule, the inhibition in series [25] is 24.9%; in [27], 25.4%. Besides, the efflux ratio – broadly, a quotient of directional permeabilities that is used to spot active efflux – in [29] amounted to 0.8.

Regarding `CS(=O)(=O)c1cccc(NC(=O)c2cc(C(F)(F)F)cnc2Oc2ccc(OC(F)(F)F)cc2)c1`, the inhibition entry in series [1] was “Active”. The molecule also gave an IC50 in [3] of 20 nM. The solubility kinetic at 2 h in series [11] is 4 µg/mL (≈ 7.69 µM).

Regarding `CS(=O)(=O)c1cccc(NC(=O)c2cc(C(F)(F)F)cnc2Oc2ccc(OC(F)(F)F)cc2Cl)c1`, the inhibition result in [1] is “Active”. Besides, the IC50 in series [3] turned out to be 15 nM; in [31] it was 24 nM. Also, the solubility kinetic at 2 h in series [11] stood at 1.5 µg/mL (≈ 2.7 µM).

Turning to `COc1cc(F)ccc1Oc1ncc(C(F)(F)F)cc1C(=O)Nc1ccnnc1`, in series [1], the inhibition result is “Active”. Further, the half-inhibitory concentration (IC50) in [3] came to 250 nM; in [31] it was 540 nM. The solubility kinetic at 2 h in series [11] came to 70 µg/mL (≈ 171 µM).

For `COc1cc(F)ccc1Oc1ncc(C(F)(F)F)cc1C(=O)Nc1cccc(S(C)(=N)=O)c1` (stereo unspecified), in series [1], the inhibition result is “Active”. Further, the values for the IC50 in series [3] and in series [31] were 23 nM and 22 nM, respectively. For the same molecule, in [11], the solubility kinetic at 2 h was found to be 48 µg/mL (≈ 99.3 µM).

Turning to `COc1cc(F)ccc1Oc1ncc(C(F)(F)F)cc1C(=O)Nc1cccc(S(C)(=O)=O)c1`, the inhibition result in series [1] is “Active”. Further, the IC50 was found to be 14 nM in series [3] and 60 nM in [31]. For the same molecule, the bioavailability in series [5] stood at 14%. Besides, in series [32], the half-life (in general, the time needed for the level to fall by half in the phase considered) was 5.6 h. Also, the clearance in series [30] was determined as 16 mL/min/kg.

For `COc1cc(F)ccc1Oc1cc(C(F)(F)F)ncc1C(=O)Nc1ccnnc1`, in series [1], the inhibition entry is “Active”. The bioavailability turned out to be 100% in series [2] and 45% in series [5]. Moreover, the IC50 in series [3] is 71 nM; in [9], over 30000 nM; in [21] it was 3100 nM. Besides, the remaining at 1 h in series [4] stood at 95%. In addition, in series [11], the solubility kinetic at 2 h came to 95 µg/mL (≈ 233 µM). For the same molecule, the INH at Cytochrome P450 3A4 was over 30 µM; on Cytochrome P450 1A2 it was 4 µM. Besides, the Vd in [14] came to 1 L/kg; in series [24] it was 3.4 L/kg. The fraction unbound in series [18] stood at 0.15. Besides, on Cytochrome P450 2C9, the “inhibition (INH)” value is on record as “Moderate_effect”. The Papp in [22] was 63 ×10⁻⁶ cm/s. Further, the values for the clearance in [23] and in [30] were 11 mL/min/kg and 24 mL/min/kg, respectively. Also, the efflux ratio in series [29] stood at 0.7.
